Where two headings read alike, the source gives them in different places.
What was measured:
[1] = tested on: Botrytis cinerea; assay: In vivo preventive test on Botrytis cinerea (grey mould); settings: gherkin plants, preventive spray, dose 100 ppm, grading 4 to 5 days after contamination
Protocol: Gherkin plants (“Vert petit de Paris” variety), sown in starter cups on a 50/50 peat soil-pozzolana substrate and grown at 24° C., are treated at the Z11 cotyledon stage by spraying with the active ingredient prepared as described above. Plants, used as controls, are treated with the mixture of acetone/tween/DMSO/water not containing the active material. After 24 hours, the plants are contaminated by spraying the cotyledons with an aqueous suspension of cryopreserved Botrytis cinerea spores (50 000 spores per ml). The spores are suspended in a nutrient solution composed of 10 g/L of PDB, 50 g/L of D-Fructose, 2 g/L of NH4NO3 and 1 g/L of KH2PO4. […] Grading (% of efficacy) is carried out 4 to 5 days after the contamination, in comparison with the control plants.

[2] = Measurement of logP values by HPLC on reversed phase columns (EEC directive 79/831 Annex V.A8); type: physicochemical; settings: for LogP[a] / LogP^[a]: method [a]; for LogP[a]: HPLC on reversed phase columns
[3] = tested on: Pyricularia oryzae; type: in vivo; settings: rice plants, preventive spray, dose 500 ppm, grading 6 days after contamination
[4] = tested on: Septoria tritici; assay: In vivo preventive test on Septoria tritici (leaf spot on wheat); settings: wheat plants, preventive spray, dose 100 ppm, grading 24 days after contamination
Protocol: Wheat plants (“Scipion” variety), sown in starter cups on a 50/50 peat soil-pozzolana substrate and grown at 22° C., are treated at the 1-leaf stage (10 cm height) by spraying with the active ingredient prepared as described above. Plants, used as controls, are treated with the mixture of acetone/tween/DMSO/water not containing the active material. After 24 hours, the plants are contaminated by spraying the leaves with an aqueous suspension of cryopreserved Septoria tritici spores (500 000 spores per ml). […] Grading (% of efficacy) is carried out 24 days after the contamination, in comparison with the control plants.

[5] = tested on: Uromyces appendiculatus; assay: In vivo preventive test on Uromyces appendiculatus (bean rust); settings: bean plants, preventive spray, dose 100 ppm, grading 11 days after contamination
Protocol: Plants, used as controls, are treated with the mixture of acetone/tween/DMSO/water not containing the active material. After 24 hours, the plants are contaminated by spraying the leaves with an aqueous suspension of Uromyces appendiculatus spores (150 000 spores per ml). […] Grading (% of efficacy) is carried out 11 days after the contamination, in comparison with the control plants.

[6] = tested on: Alternaria brassicae; assay: In vivo preventive test on Alternaria brassicae (leaf spot on radish); settings: radish plants, preventive spray, dose 100 ppm, grading 6 days after contamination
Protocol: Radish plants (“Pernod Clair” variety), sown in starter cups on a 50/50 peat soil-pozzolana substrate and grown at 17° C., are treated at the cotyledon stage by spraying with the active ingredient prepared as described above. Plants, used as controls, are treated with the mixture of acetone/tween/DMSO/water not containing the active material. After 24 hours, the plants are contaminated by spraying the cotyledons with an aqueous suspension of Alternaria brassicae spores (50 000 spores per ml). The spores are collected from a 15-day-old culture. The contaminated radish plants are incubated at 20° C. and at 100% relative humidity. Grading (% of efficacy) is carried out 6 days after the contamination, in comparison with the control plants.

[7] = tested on: Sphaerotheca fuliginea; assay: In vivo preventive test on Sphaerotheca fuliginea (powdery mildew on cucurbits); settings: gherkin plants, preventive spray, dose 100 ppm, grading 12 days after contamination
Protocol: Gherkin plants (“Vert petit de Paris” variety), sown in starter cups on a 50/50 peat soil-pozzolana substrate and grown at 24° C., are treated at the Z11 cotyledon stage by spraying with the active ingredient prepared as described above. Plants, used as controls, are treated with the mixture of acetone/tween/DMSO/water not containing the active material. After 24 hours, the plants are contaminated by spraying the cotyledons with an aqueous suspension of Sphaerotheca fuliginea spores (100 000 spores per ml). The spores are collected from infected plants. […] Grading (% of efficacy) is carried out 12 days after the contamination, in comparison with the control plants.

[8] = tested on: Phakopsora pachyrhizi; assay: In vivo preventive test on Phakopsora pachyrhizi (soybeans); settings: soybean plants, preventive spray, dose 10 ppm, evaluated 7 days after inoculation
[9] = tested on: Pyrenophora teres; assay: In vivo preventive test on Pyrenophora teres (net blotch on barley); settings: barley plants, preventive spray, dose 100 ppm, grading 14 days after contamination
Protocol: Barley plants (“Plaisant” variety), sown in starter cups on a 50/50 peat soil-pozzolana substrate and grown at 22° C., are treated at the 1-leaf stage (10 cm height) by spraying with the active ingredient prepared as described above. Plants, used as controls, are treated with the mixture of acetone/tween/DMSO/water not containing the active material. After 24 hours, the plants are contaminated by spraying the leaves with an aqueous suspension of Pyrenophorateres spores (12 000 spores per ml). The spores are collected from a 12-day-old culture. […] Grading (% of efficacy) is carried out 14 days after the contamination, in comparison with the control plants.

CCCC1CCc2c(NC(=O)c3cn(C)nc3C(F)F)cccc2C1C (mixture of isomers) [Example 95]
biological efficacy [1]: ≥ 80%
LogP[a] [2]: 4.18^[a]

Cc1nc(C(F)F)c(C(=O)Nc2cccc3c2CCCC3(C)C)s1 [Example 3]
biological efficacy [3]: ≥ 90%
LogP^[a] [2]: 3.64^[a]

CON=C1CCCc2c(NC(=S)c3nccnc3C(F)(F)F)cccc21 [Example 88]
LogP^[a] [2]: 3.39^[a]

CCON=C1CCCc2c(NC(=S)c3ccoc3C(F)F)cccc21 [Example 89]
LogP^[a] [2]: 4.11^[a]

Cc1nn(C)c(C)c1C(=O)Nc1ccc(F)c2c1CCCC2(C)C [Example 90]
LogP^[a] [2]: 2.98^[a]

CCON=C1CCCc2c(NC(=S)c3nccnc3C(F)(F)F)cccc21 [Example 91]
LogP^[a] [2]: 3.83^[a]

Cn1cc(C(=O)Nc2cccc3c2C(C)(C)CCC3)c(C(F)F)n1 [Example 92]
LogP^[a] [2]: 2.99^[a]

CCC1(CC)CCCc2c(NC(=O)c3cn(C)nc3C(F)F)cccc21 [Example 93]
LogP^[a] [2]: 4.03^[a]

CCCC1(C)CCCc2c(NC(=O)c3cn(C)nc3C(F)F)cccc21 (centres unmarked) [Example 94]
LogP^[a] [2]: 4.08^[a]
biological efficacy [4]: ≥ 70%
biological efficacy [5]: ≥ 80%

CC1(C)CCc2c(cccc2NC(=S)c2ccoc2C(F)F)C1 [Example 96]
LogP[a] [2]: 4.39^[a]
biological efficacy [6]: ≥ 70%

Cc1nc(C(F)F)c(C(=S)Nc2cccc3c2CCC(C)(C)C3)s1 [Example 97, 4-(difluoromethyl)-N-(6,6-dimethyl-5,6,7,8-tetrahydronaphthalen-1-yl)-2-methyl-1,3-thiazole-5-carbothioamide]
chromatographic logP ([2]; pH 2.7): 4.16
biological efficacy [7]: ≥ 80%

CC(C)C1CCCc2c(NC(=O)c3cn(C)nc3C(F)F)cccc21 (centres unmarked) [Example 98]
biological efficacy [8]: ≥ 70%
biological efficacy [1]: ≥ 90%
LogP[a] [2]: 3.73^[a]
biological efficacy [9]: ≥ 90%

CC(C)C1CCCc2c(NC(=O)c3cn(C)nc3C(F)(F)F)cccc21 (centres unmarked) [Example 99]
LogP[a] [2]: 3.96^[a]

CC1(C)CCc2c(N)cccc2C1 [III-a-3, 6,6-dimethyl-5,6,7,8-tetrahydronaphthalen-1-amine]
chromatographic logP ([2]; reversed phase HPLC columns, method [a]: LC-MS at pH 2.7, 0,1% formic acid in water / acetonitrile, gradient 10% to 95% acetonitrile, amines of formula (III-a), read-out: LogP^[a]): 1.88

Source: patent publication US9630943B2, “Tetrahydronaphthyl(thio) carboxamides” (BAYER CROPSCIENCE AG, priority 2012, dated 2017)
